Assay results: PMC9516332 (Frontiers in Oncology, 2022)
Where two headings read alike, the source gives them in different places.

Legend:
Assay in all cases: Kinase panel profiling at 1 µmol/L (MSA or IMAP), percentage inhibition
Format in all cases: biochemical
[1] = biological target: panel of 255 wild-type kinases (Homo sapiens, UniProt Q16654); settings: read-out: %-inhibition at 1 µmol/L, PDHK4
[2] = biological target: panel of 255 wild-type kinases (Homo sapiens, UniProt P21802); settings: read-out: %-inhibition at 1 µmol/L, FGFR2
[3] = biological target: panel of 255 wild-type kinases (Homo sapiens, UniProt Q9UPE1); settings: read-out: %-inhibition, MSSK1
[4] = biological target: T1, panel of 255 wild-type kinases (Homo sapiens, UniProt P29322); settings: read-out: %-inhibition at 1 µmol/L, EPHA8
T1 sequence (P29322 28-1005): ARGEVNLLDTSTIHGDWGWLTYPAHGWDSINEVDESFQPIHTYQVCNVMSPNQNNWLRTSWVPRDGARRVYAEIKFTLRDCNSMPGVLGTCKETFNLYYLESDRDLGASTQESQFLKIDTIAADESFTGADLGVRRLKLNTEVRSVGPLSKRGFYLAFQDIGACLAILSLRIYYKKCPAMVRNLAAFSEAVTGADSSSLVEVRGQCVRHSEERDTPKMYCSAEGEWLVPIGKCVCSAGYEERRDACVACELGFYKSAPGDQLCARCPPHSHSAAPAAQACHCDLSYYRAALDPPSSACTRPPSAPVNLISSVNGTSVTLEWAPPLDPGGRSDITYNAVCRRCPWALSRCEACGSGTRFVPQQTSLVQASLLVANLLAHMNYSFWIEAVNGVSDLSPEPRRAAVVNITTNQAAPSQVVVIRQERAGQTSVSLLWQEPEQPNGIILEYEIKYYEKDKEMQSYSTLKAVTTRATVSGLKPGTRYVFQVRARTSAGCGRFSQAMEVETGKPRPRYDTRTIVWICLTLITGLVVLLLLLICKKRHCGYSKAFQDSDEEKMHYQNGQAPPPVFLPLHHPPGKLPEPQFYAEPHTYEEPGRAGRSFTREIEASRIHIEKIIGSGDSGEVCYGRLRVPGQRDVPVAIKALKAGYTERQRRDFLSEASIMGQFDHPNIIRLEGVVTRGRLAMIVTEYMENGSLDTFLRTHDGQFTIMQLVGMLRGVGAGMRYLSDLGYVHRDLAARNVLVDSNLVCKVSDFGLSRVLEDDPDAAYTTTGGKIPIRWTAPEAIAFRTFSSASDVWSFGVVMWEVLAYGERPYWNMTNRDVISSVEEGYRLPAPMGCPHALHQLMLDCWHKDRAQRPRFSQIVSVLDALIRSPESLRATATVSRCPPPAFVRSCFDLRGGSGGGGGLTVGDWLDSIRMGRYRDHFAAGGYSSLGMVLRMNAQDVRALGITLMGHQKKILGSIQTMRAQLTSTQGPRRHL

[5] = biological target: T2, panel of 255 wild-type kinases (Homo sapiens, UniProt P21709); settings: read-out: %-inhibition at 1 µmol/L, EPHA1
T2 sequence (P21709 26-976): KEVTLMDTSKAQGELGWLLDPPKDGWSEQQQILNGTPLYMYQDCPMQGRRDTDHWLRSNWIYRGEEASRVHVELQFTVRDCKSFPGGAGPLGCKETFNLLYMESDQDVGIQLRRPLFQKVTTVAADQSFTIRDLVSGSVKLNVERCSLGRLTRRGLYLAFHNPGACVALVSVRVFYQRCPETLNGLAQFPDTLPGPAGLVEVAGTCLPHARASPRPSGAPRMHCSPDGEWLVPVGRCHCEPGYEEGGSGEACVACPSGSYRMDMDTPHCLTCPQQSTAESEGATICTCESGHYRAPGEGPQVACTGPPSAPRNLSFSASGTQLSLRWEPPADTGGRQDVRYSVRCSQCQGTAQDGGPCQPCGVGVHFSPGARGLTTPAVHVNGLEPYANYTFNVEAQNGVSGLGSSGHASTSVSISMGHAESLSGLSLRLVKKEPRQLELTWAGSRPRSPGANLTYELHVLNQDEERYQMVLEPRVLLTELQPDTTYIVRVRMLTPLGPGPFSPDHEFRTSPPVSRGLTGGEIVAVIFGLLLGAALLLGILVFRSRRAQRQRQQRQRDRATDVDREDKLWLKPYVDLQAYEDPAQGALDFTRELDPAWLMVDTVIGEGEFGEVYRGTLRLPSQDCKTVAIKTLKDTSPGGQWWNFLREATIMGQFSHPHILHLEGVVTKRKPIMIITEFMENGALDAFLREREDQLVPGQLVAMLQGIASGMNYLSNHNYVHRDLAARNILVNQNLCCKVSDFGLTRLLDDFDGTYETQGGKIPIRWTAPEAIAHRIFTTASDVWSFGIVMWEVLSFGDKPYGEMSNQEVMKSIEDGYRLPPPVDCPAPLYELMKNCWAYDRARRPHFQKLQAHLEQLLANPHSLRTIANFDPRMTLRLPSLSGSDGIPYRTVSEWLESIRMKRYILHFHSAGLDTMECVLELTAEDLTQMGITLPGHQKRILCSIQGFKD

[6] = biological target: T3, panel of 255 wild-type kinases (Homo sapiens, UniProt P42680); settings: read-out: %-inhibition at 1 µmol/L, TEC
T3 sequence (P42680 1-631): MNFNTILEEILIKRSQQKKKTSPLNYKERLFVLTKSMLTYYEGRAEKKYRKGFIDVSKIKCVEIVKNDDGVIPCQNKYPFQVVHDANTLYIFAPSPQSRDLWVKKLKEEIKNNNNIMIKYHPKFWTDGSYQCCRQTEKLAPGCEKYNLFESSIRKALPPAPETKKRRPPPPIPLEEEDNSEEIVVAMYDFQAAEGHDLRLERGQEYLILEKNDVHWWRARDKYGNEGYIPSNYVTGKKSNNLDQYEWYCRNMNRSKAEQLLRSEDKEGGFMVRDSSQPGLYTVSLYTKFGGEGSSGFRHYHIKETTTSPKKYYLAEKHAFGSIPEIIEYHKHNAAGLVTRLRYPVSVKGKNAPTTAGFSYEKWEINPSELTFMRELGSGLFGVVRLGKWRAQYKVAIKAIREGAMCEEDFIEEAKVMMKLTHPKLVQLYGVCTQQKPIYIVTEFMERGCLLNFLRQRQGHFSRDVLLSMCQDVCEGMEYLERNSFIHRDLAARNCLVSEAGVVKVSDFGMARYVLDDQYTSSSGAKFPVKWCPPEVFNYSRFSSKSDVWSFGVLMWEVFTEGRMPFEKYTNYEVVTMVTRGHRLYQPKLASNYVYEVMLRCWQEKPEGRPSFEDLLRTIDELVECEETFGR

[7] = kinase PDHK4, 1 µmol/L single concentration
[8] = kinase FGFR2, 1 µmol/L single concentration
[9] = MSSK1, 1 µmol/L single concentration
[10] = kinase EPHA8, 1 µmol/L single concentration
[11] = kinase EPHA1, 1 µmol/L single concentration
[12] = kinase TEC, 1 µmol/L single concentration

inhibition at 1 µM [2, 8] | Compound | inhibition at 1 µM [1, 7] | inhibition at 1 µM [3, 9] | inhibition at 1 µM [4, 10] | inhibition at 1 µM [5, 11] | inhibition at 1 µM [6, 12] | inhibition at 1 µM [1] | inhibition at 1 µM [2] | inhibition at 1 µM [3] | inhibition at 1 µM [4] | inhibition at 1 µM [5] | inhibition at 1 µM [6]
7% | Cc1nc(NC(=O)N2CCC[C@H]2C(N)=O)sc1-c1ccnc(C(C)(C)C(F)(F)F)c1 [alpelisib] | 0.0757% | -3.38% | -6.59% | -3.59% | -0.644% |  |  |  |  |  | 
4.56% | Cn1cnc2c(F)c(Nc3ccc(Br)cc3F)c(C(=O)NOCCO)cc21 [binimetinib] | -0.429% | -4.37% | 2.68% | 4% | 0.674% |  |  |  |  |  | 
 | CNC(=O)c1ccc(-c2cnc3ncc(Cc4ccc5ncccc5c4)n3n2)cc1F [capmatinib] |  |  |  |  |  | 0.789% | 7% | -3.24% | -14% | -3.32% | 4%
16% | COc1cc2ncnc(Nc3ccc(F)c(Cl)c3)c2cc1NC(=O)/C=C/CN1CCCCC1 [dacomitinib] | 3% | 0.445% | 59% | 79% | 20% |  |  |  |  |  | 
5% | C[C@H](Nc1ncnc2nc[nH]c12)c1cc2cccc(Cl)c2c(=O)n1-c1ccccc1 [duvelisib] | 3% | -2.73% | -7% | -7% | 1.84% |  |  |  |  |  | 
 | CCN1CCN(c2ccc(Nc3cc(N(C)C(=O)Nc4c(Cl)c(OC)cc(OC)c4Cl)ncn3)cc2)CC1 [infigratinib] | -1.46% | -2.83% | -10% | -2% | 7% |  |  |  |  |  | 
-6.46% | O=C(Nc1cnn2ccc(N3CCC[C@@H]3c3cc(F)ccc3F)nc12)N1CC[C@H](O)C1 [larotrectinib] | 2% | -1.58% | -9% | -2.54% | 1.59% |  |  |  |  |  | 
 | CCN1C(=O)N(c2c(F)c(OC)cc(OC)c2F)Cc2cnc3[nH]c(CN4CCOCC4)cc3c21 [pemigatinib] | -4% | -7% | -6% | -4% | -1.55% |  |  |  |  |  | 
98% | CO[C@]1(C(=O)N[C@@H](C)c2ccc(-n3cc(F)cn3)nc2)CC[C@H](c2nc(C)cc(Nc3cc(C)[nH]n3)n2)CC1 [pralsetinib] | 12% | -6% | 84% | 66% | 95% |  |  |  |  |  | 
100% | COc1ccc(CN2C3CC2CN(c2ccc(-c4cc(OCC(C)(C)O)cn5ncc(C#N)c45)cn2)C3)cn1 [selpercatinib] | -2.71% | 2.44% | 45% | 79% | 37% |  |  |  |  |  | 
1.1% | Cn1cnc2c(F)c(Nc3ccc(Br)cc3Cl)c(C(=O)NOCCO)cc21 [selumetinib] | 0.425% | -5.32% | -12% | -2.25% | 16% |  |  |  |  |  | 

Compound | inhibition at 1 µM [2, 8] | inhibition at 1 µM [1, 7] | inhibition at 1 µM [3, 9] | inhibition at 1 µM [4, 10] | inhibition at 1 µM [5, 11] | inhibition at 1 µM [6, 12] | inhibition at 1 µM [1] | inhibition at 1 µM [2] | inhibition at 1 µM [3] | inhibition at 1 µM [4] | inhibition at 1 µM [5] | inhibition at 1 µM [6]
Cn1cc(-c2cc3c(N4CCN(c5ncc([C@@](C)(N)c6ccc(F)cc6)cn5)CC4)ncnn3c2)cn1 [avapritinib] | 62% | 5.61% | 0.0476% | 73% | 51% | 16% |  |  |  |  |  | 
COC(=O)N[C@@H](C)CNc1nccc(-c2cn(C(C)C)nc2-c2cc(Cl)cc(NS(C)(=O)=O)c2F)n1 [encorafenib] | 4% | -2.11% | 1.39% | 16% | 5.42% | -1.53% |  |  |  |  |  | 
CN1CCN(c2ccc(C(=O)Nc3n[nH]c4ccc(Cc5cc(F)cc(F)c5)cc34)c(NC3CCOCC3)c2)CC1 [entrectinib] | 97% | 3.42% | 12% | 55% | 88% | 97% |  |  |  |  |  | 
CCc1nc(C(N)=O)c(Nc2ccc(N3CCC(N4CCN(C)CC4)CC3)c(OC)c2)nc1NC1CCOCC1 [gilteritinib] | 61% | 3% | 22% | 66% | 99% | 44% |  |  |  |  |  | 
C[C@H]1Oc2cc(cnc2N)-c2c(nn(C)c2C#N)CN(C)C(=O)c2ccc(F)cc21 [lorlatinib] | 5.32% | -0.664% | 33% | 6% | 73% | 3% |  |  |  |  |  | 
FC(F)(F)c1ccc(CNc2ccc(Cc3c[nH]c4ncc(Cl)cc34)cn2)cn1 [pexidartinib] | 62% | 4.63% | -4% | 6.33% | 7% | -0.0585% |  |  |  |  |  | 
CCn1c(=O)c(-c2cc(NC(=O)Nc3ccccc3)c(F)cc2Br)cc2cnc(NC)cc21 [ripretinib] | 72% | 4% | -0.94% | 101% | 78% | 5.66% |  |  |  |  |  | 
